Assay results reported in US20170196927A1, “COMPOSITION FOR ARTHRITIS, MOBILITY AND DELAY AGEING” (Mars, Incorporated, priority 2014, published 2017).
Like-named read-outs stand apart in the source and are kept apart here.

How the values were obtained:
[1] = tested on: cyclooxgenase-2 (COX-2); assay: RNA expression of COX-2 (RT-PCR) in IL-1β stimulated RAC; format: cell-based, Rabbit; conditions: for Effect on COX2 expression (in words): IL-1β stimulated RAC; for COX2 Expression: relative RNA expression (untreated = 1.0), GAPDH reference, 24 h pre-treatment, IL-1β 10 ng/ml 48 h, green tea extract 50 μM, collagen 0.5 mg/ml, chondroitin 200 μg/ml
Experimental: (§1) An in vitro study was run to evaluate the efficacy of a composition containing chondroitin, hydrolysed collagen and green tea extract on Rabbit Articular Chondrocytes (RAC). RAC were cultured in DMEM supplemented with 10% Fetal Calf Serum, glutamine and 1% penicillin/streptomycin (Gibco, Life Technologies AG, Switzerland) at 37° C. in an incubator with an atmosphere of 5% CO2.
(§2) RAC were plated in 6 well plates (3×10^5 cells/cm2). The medium was replaced with fresh medium containing each compound chondroitin, hydrolysed collagen and green tea extract or a mixture of all three compounds for 24 hours prior to stimulation with IL-1β (10 ng/ml) (Merck Millipore, USA). RAC were then incubated for 48, hours after which RNA expression of cyclooxgenase-2 (COX-2), inducible isoform Nitric oxide Synthase (iNoS) and Matrix Metallopeptidase-13 (MMP13) was measured as markers of arthritis.
(§3) NO and PGE2 production was measured using Cayman Chemicals (Bertin Pharma, France) following the manufacturer's protocol. NO production was estimated spectrophotometrically by measuring the accumulation of nitrites in the culture supernatants by Griess reaction using a standard curve prepared with sodium nitrite. PGE2 was estimated using a highly sensitive and specific Enzyme Immunoassay Kit. RNA extraction was performed by extracting RNA using the NucleoSpin™ RNA II Kit (Macherey-Nagel, Hoerdt, France) as per manufacturer's instructions. RNA was reverse-transcribed with SupersScript III (Life Technologies) and real-time polymerase chain reaction (RT-PCR) was performed with SYBR Select mix (Life Technologies). Primer sequences COX-2, iNoS and MMP13 was used to quantify the relative RNA expression. Primer sequence for GAPDH was used as the reference gene.

[2] = tested on: inducible isoform Nitric oxide Synthase (iNoS); assay: RNA expression of iNoS (RT-PCR) in IL-1β stimulated RAC; format: cell-based, Rabbit; conditions: for Effect on iNos expression (in words): IL-1β stimulated RAC; for iNoS Expression: relative RNA expression (untreated = 1.0), GAPDH reference, 24 h pre-treatment, IL-1β 10 ng/ml 48 h, green tea extract 50 μM, collagen 0.5 mg/ml, chondroitin 200 μg/ml
Experimental: as §1, §2, §3

[3] = tested on: Rabbit Articular Chondrocytes (RAC); assay: Cellular viability of RAC (MTS assay and trypan blue exclusion); format: cell-based
Experimental: as §1
Cellular viability was measured using an MTS assay (Cell Titer 96™ MTS, Promega, France) as per manufacturer's instructions. Cells were also counted using a Malassez cell and cellular viability was assessed using trypan blue exclusion dye technique, which colours dead cells in blue.
Rabbit Articular Chondrocytes (RAC) were incubated with the different compounds separately or blended together to evaluate their cytotoxicity.

[4] = tested on: Matrix Metallopeptidase-13 (MMP13); assay: RNA expression of MMP13 (RT-PCR) in IL-1β stimulated RAC; format: cell-based, Rabbit
Experimental: as §1, §2
NO and PGE2 production was measured using Cayman Chemicals (Bertin Pharma, France) following the manufacturer's protocol. NO production was estimated spectrophotometrically by measuring the accumulation of nitrites in the culture supernatants by Griess reaction using a standard curve prepared with sodium nitrite. PGE2 was estimated using a highly sensitive and specific Enzyme Immunoassay Kit. […] Primer sequences COX-2, iNoS and MMP13 was used to quantify the relative RNA expression. […]

Row | Substance | Effect on COX2 expression (in words) [1] | COX2 Expression [1] | Effect on iNos expression (in words) [2] | iNoS Expression [2] | Cellular toxicity (MTS measurements and Trypan blue exclusion) ([3]; 24 and 48 hours of incubation, large range of concentration (data not shown)) | Effect on MMP13 expression (in words) [4] | Cellular toxicity (MTS measurements and Trypan blue exclusion) [3]
1 | Chondroitin | seems to have no effect | 10.7 | seems to have no effect | 5.3 | did not reveal any cellular toxicity | seems to have no effect | 
2 | Collagen | decreases the expression | 7.1 | decreases the expression | 3.9 |  | decreases the expression | did not reveal any cellular toxicity
